In data set [1] the test system is amygdala. Particulars: depressed patients, versus baseline evaluation; cited from earlier work.
For data set [2], the system named is amygdala. To be noted: healthy subjects; cited from earlier work.
Another data set can be described thus: clinical. Particulars: human, in vivo, iv, 0.4 ug/kg. The method, then:
Upon entering the scanner, an […] was started in an antecubital vein and subjects were randomly assigned to receive either placebo (saline) or RG1068 (synthetic human secretin). Drug was administered at 0.4 μg/kg via the […] over 1 min. A 3-way stop-clock device with a heparinized line was used to collect blood samples immediately preceding the infusion of RG1068 or placebo and at variable points post infusion for drug pharmacokinetic analysis. Vital signs were monitored for at least 20 minutes after infusion. Prior to the infusion, subjects completed three affective challenge paradigms which had been explained to them before entering the scanner. Subjects completed the same paradigms one hour following infusion with either placebo or RG1068 for pre/post comparison (FIG. 1).
Blood samples were taken over the first 60 minutes post dosing, and samples from subjects receiving RG1068 were used to quantify secretin blood levels. […] Both the Cmax and the elimination rate are consistent with values observed after similar secretin infusions in adults (Christ et al., 1988). Whole brain T2 measures were obtained to verify that no global metabolic effect occurred with the administration of secretin.

With `COc1ccc(C(CN(C)C)C2(O)CCCCC2)cc1` (stereo not shown) [venlafaxine], the “amygdalar activation to positive stimuli after treatment” value in the data set on amygdala [1] is given as “significant increase in activation”.

With `C[C@H](N)Cc1ccccc1` [dextroamphetamine], the “amygdalar responsivity to facial affect” value in the data set on amygdala [2] is listed as “increased amygdalar responsivity”.

In general, Cmax refers to the peak of the concentration-time curve. Broadly, the half-life is the time needed for the level to fall by half in the phase considered. Regarding `CC(C)C[C@H](NC(=O)CNC(=O)[C@H](CCC(N)=O)NC(=O)[C@H](CC(C)C)NC(=O)[C@H](CC(C)C)NC(=O)[C@H](CCCNC(=N)N)NC(=O)[C@H](CCC(N)=O)NC(=O)[C@H](CC(C)C)NC(=O)[C@H](CCCNC(=N)N)NC(=O)[C@H](C)NC(=O)CNC(=O)[C@H](CCC(=O)O)NC(=O)[C@H](CCCNC(=N)N)NC(=O)[C@H](CC(C)C)NC(=O)[C@H](CCCNC(=N)N)NC(=O)[C@H](CO)NC(=O)[C@H](CC(C)C)NC(=O)[C@H](CCC(=O)O)NC(=O)[C@H](CO)NC(=O)[C@@H](NC(=O)[C@H](Cc1ccccc1)NC(=O)[C@@H](NC(=O)CNC(=O)[C@H](CC(=O)O)NC(=O)[C@H](CO)NC(=O)[C@@H](N)Cc1c[nH]cn1)[C@@H](C)O)[C@@H](C)O)C(=O)N[C@H](C(N)=O)C(C)C` [Secretin, secretin], in “clinical”, the Cmax came to 5.1 ng/mL and the half-life came to 3.7 min.

The values above are taken from patent US8524665B2, “Use of secretin in treatments of disorders associated with the amygdala” (The McLean Hospital Corporation, priority 2003, dated 2013).
